Test results: patent US12673950B2, “Spiros and related analogs for inhibiting YAP/TAZ-TEAD” (THE KATHOLIEKE UNIVERSITEIT LEUVEN, priority 2021, dated 2026)

What was measured:
Format in all cases: cell-based
[1] = test system: YAP/TAZ-TEAD transcription; assay: Reporter gene assay for measuring the inhibition of YAP/TAZ-TEAD transcription (TEAD-responsive element luciferase reporter in Hek293T cells); details: Hek293T cells transfected with TEAD-responsive luciferase reporter, 24 hours incubation
Method: Hek293T cells are cultured in DMEM supplemented with 10% fetal bovine serum, Sodium pyruvate, Sodium bicarbonate, L-glutamine. The cells are harvested and transiently transfected with TEAD-responsive element luciferase reporter. Transfected cells are plated in 384-wells plate containing pre-diluted compounds. After 24 hours incubation at 37° C./5% CO2, assay plates were cooled down to RT and levelled to an equal volume per well, prior to the addition of 25 uL luciferase substrate SteadyLite (Perkin Elmer)/well. The plate was shaken for 10 min at 600 rpm, centrifuged for 1 min at 500 rpm and measured with an Envision reader (PerkinElmer). The amount of relative light units produced by the TEAD reporter is used to calculated percent of inhibition.
The percent of reporter inhibition was calculated in the presence of a positive control inhibitor (100% inhibition) versus a condition with the presence of the vehicle basal activity of the reporter (0% inhibition). The ability of a test compound to inhibit this activity was determined as: Percentage inhibition=[1−((RLU determined in the presence of vehicle−RLU determined for sample with test compound present) divided by (RLU determined in the presence of vehicle−RLU determined for sample with positive control inhibitor))]*100
The activities of example compounds tested are depicted in Table 3. The activity ranges A, B and C refer to IC50 values in the reporter gene assay as follows: “A”: IC50<1 μM; “B”: 1 μM≤IC50≤20 μM and “C”: IC50>20 μM; NT=not tested.

NCI-H226 = assay: Mesothelioma cell line proliferation assay (ATPlite), NCI-H226; details: Homo sapiens, 144 h; NCI-H226 mesothelioma cells, 6 days incubation, ATPlite cell viability
Method: (§1) Mesothelioma cell lines, NCI-H226 and NCI-H2052 (all sourced from the ATCC cell culture collection) are plated in 96-well plates (Corning® 96 Well White Polystyrene Microplate clear flat bottom, white polystyrene (TC-Treated)), at 1500 cells/well in full medium (RPMI 1640 ATCC modification with L-glutamine, HEPES, Phenol Red, Sodium Pyruvate, High glucose, Low sodium bicarbonate and 10% fetal bovine serum). Cells are incubated overnight at 37° C. in an incubator with 5% CO2. Then compounds, dissolved in DMSO, are added in dose-response. Cells are incubated with compound dilutions for another 6 days at 37° C. in an incubator with 5% CO2. Cell viability is quantitated using the ATPlite kit (Perkin-Elmer) and the luminescence is read-out using an Envision instrument (Perkin-Elmer). The amount of relative light units produced using the ATPlite kit is used to calculated percent of inhibition.
(§2) The activities of some example compounds are depicted in Table 4. The activity ranges A, B and C refer to EC50 values in the mesothelioma cell line proliferation assay as described as follows: “A”: EC50<1 μM; “B”: 1 μM≤EC50≤10 μM and “C”: EC50>10 μM; NT: not tested.

NCI-H2052 = assay: Mesothelioma cell line proliferation assay (ATPlite), NCI-H2052; details: Homo sapiens, 144 h; NCI-H2052 mesothelioma cells, 6 days incubation, ATPlite cell viability
Method: as §1, §2

SMILES	IC50 ([1]; Homo sapiens, HEK-293T, 24 h)	EC50 (NCI-H226)	EC50 (NCI-H2052)	IC50 [1]
C=CC(=O)N1CCC2(Cc3ccccc3N(c3ccc(C(F)(F)F)cc3)C2)C1 (racemic) [Cpd. No. 003, 1-(1′-(4-(trifluoromethyl)phenyl)-1′,4′-dihydro-2′H-spiro[pyrrolidine-3,3′-quinolin]-1-yl)prop-2-en-1-one]	< 1 µM	< 1 µM	< 1 µM	–
C=CC(=O)N1CC2(Cc3ccccc3N(c3ccc(C(F)(F)F)cc3)C2)C1 [Cpd. No. 006, 1-(1′-(4-(trifluoromethyl)phenyl)-1′,4′-dihydro-2′H-spiro[azetidine-3,3′-quinolin]-1-yl)prop-2-en-1-one]	< 1 µM	< 1 µM	< 1 µM	–
C=CC(=O)N1CCC2(CC1)Cc1ccccc1N(c1ccc(C(F)(F)F)cc1)C2 [Cpd. No. 002, 1-(1′-(4-(trifluoromethyl)phenyl)-1′,4′-dihydro-2′H-spiro[piperidine-4,3′-quinolin]-1-yl)prop-2-en-1-one]	< 1 µM	< 1 µM	1 to 10 µM	–
CS(=O)(=O)N1CCC2(Cc3ccccc3N(c3ccc(C(F)(F)F)cc3)C2)C1 (single isomer, unassigned) [Cpd. No. 005-En2, (R)- or (S)-1-(methylsulfonyl)-1′-(4-(trifluoromethyl)phenyl)-1′,4′-dihydro-2′H-spiro[pyrrolidine-3,3′-quinoline]]	–	< 1 µM	< 1 µM	< 1 µM
C=CC(=O)N1CCC2(CC1)Cc1ccccc1N(c1ccc(C(F)(F)F)cc1)C2=O [Cpd. No. 001, 1-acryloyl-1′-(4-(trifluoromethyl)phenyl)-1′,4′-dihydro-2′H-spiro[piperidine-4,3′-quinolin]-2′-one]	< 1 µM	–	–	–
C=CC(=O)N1CCC2(Cc3cc(C(F)(F)F)ccc3N(c3ccc(C(F)(F)F)cc3)C2)C1 (stereo not shown) [Cpd. No. 009, 1-[6-(trifluoromethyl)-1-[4-(trifluoromethyl)phenyl]spiro[2,4-dihydroquinoline-3,3′-pyrrolidine]-1′-yl]prop-2-en-1-one]	< 1 µM	–	–	–
CC(NC(=O)N1CCC2(Cc3ccccc3N(c3ccc(C(F)(F)F)cc3)C2)C1)c1ccccn1 (stereo not shown) [Cpd. No. 008, N-[1-(2-pyridyl)ethyl]-1-[4-(trifluoromethyl)phenyl]spiro[2,4-dihydroquinoline-3,3′-pyrrolidine]-1′-carboxamide]	1 to 20 µM	–	–	–
CS(=O)(=O)N1CCC2(Cc3ccccc3N(c3ccc(C(F)(F)F)cc3)C2)C1 (single isomer, unassigned) [Cpd. No. 005-En1, (R)- or (S)-1-(methylsulfonyl)-1′-(4-(trifluoromethyl)phenyl)-1′,4′-dihydro-2′H-spiro[pyrrolidine-3,3′-quinoline]]	–	–	–	> 20 µM
CS(=O)(=O)N1CCC2(Cc3cc(C(F)(F)F)ccc3N(c3ccc(C(F)(F)F)cc3)C2)C1 (stereo not shown) [Cpd. No. 011, 1′-methylsulfonyl-6-(trifluoromethyl)-1-[4-(trifluoromethyl)phenyl]spiro[2,4-dihydroquinoline-3,3′-pyrrolidine]]	< 1 µM	–	–	–
CC(=O)N1CCC2(Cc3cc(C(F)(F)F)ccc3N(c3ccc(C(F)(F)F)cc3)C2)C1 (stereo not shown) [Cpd. No. 010, 1-[6-(trifluoromethyl)-1-[4-(trifluoromethyl)phenyl]spiro[2,4-dihydroquinoline-3,3′-pyrrolidine]-1′-yl]ethanone]	> 20 µM	–	–	–

Now from value to molecule:

IC50 ([1]; Homo sapiens, HEK-293T, 24 h)	EC50 (NCI-H226)	EC50 (NCI-H2052)	IC50 [1]	SMILES
–	–	–	1 to 20 µM	CCC(=O)N1CCC2(Cc3ccccc3N(c3ccc(C(F)(F)F)cc3)C2)C1 (single isomer, unassigned) [Cpd. No. 004-En2, (R)- or (S)-1-(1′-(4-(trifluoromethyl)phenyl)-1′,4′-dihydro-2′H-spiro[pyrrolidine-3,3′-quinolin]-1-yl)propan-1-one]
> 20 µM	–	–	–	CCC(=O)N1CC2(Cc3ccccc3N(c3ccc(C(F)(F)F)cc3)C2)C1 [Cpd. No. 007, 1-(1′-(4-(trifluoromethyl)phenyl)-1′,4′-dihydro-2′H-spiro[azetidine-3,3′-quinolin]-1-yl)propan-1-one]
–	–	–	> 20 µM	CCC(=O)N1CCC2(Cc3ccccc3N(c3ccc(C(F)(F)F)cc3)C2)C1 (single isomer, unassigned) [Cpd. No. 004-En1, (R)- or (S)-1-(1′-(4-(trifluoromethyl)phenyl)-1′,4′-dihydro-2′H-spiro[pyrrolidine-3,3′-quinolin]-1-yl)propan-1-one]
–	–	–	< 1 µM	C=CC(=O)N1CCC2(Cc3ccccc3N(c3ccc(C(F)(F)F)cc3)C2)C1 (single isomer, unassigned) [Cpd. No. 003-En1, (R)- or (S)-1-(1′-(4-(trifluoromethyl)phenyl)-1′,4′-dihydro-2′H-spiro[pyrrolidine-3,3′-quinolin]-1-yl)prop-2-en-1-one]
< 1 µM	< 1 µM	< 1 µM	–	C=CC(=O)N1CCC2(Cc3ccccc3N(c3ccc(C(F)(F)F)cc3)C2)C1 (single isomer, unassigned) [Cpd. No. 003-En2, (R)- or (S)-1-(1′-(4-(trifluoromethyl)phenyl)-1′,4′-dihydro-2′H-spiro[pyrrolidine-3,3′-quinolin]-1-yl)prop-2-en-1-one]
